Test results published in article PMC5818740, “Lock and chop: A novel method for the generation of a PICK1 PDZ domain and piperidine‐based inhibitor co‐crystal structure” (Protein Science : A Publication of the Protein Society, 2018).

Biological target: PICK1 (protein interacting with kinase C1), PDZ domain (Homo sapiens, UniProt Q9NRD5)
Test: biochemical

Chain of PICK1 (protein interacting with kinase C1), PDZ domain (Q9NRD5 1-357 limits assumed): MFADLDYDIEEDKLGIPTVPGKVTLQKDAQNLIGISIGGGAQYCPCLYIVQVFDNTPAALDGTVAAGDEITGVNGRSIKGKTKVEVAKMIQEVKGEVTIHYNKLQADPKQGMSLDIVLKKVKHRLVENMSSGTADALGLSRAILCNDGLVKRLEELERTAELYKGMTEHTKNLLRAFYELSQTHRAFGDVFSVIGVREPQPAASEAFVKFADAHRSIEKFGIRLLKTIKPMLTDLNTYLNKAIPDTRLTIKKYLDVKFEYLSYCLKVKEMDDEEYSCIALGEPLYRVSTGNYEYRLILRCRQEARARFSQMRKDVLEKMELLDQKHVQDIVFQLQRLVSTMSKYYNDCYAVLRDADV

IC50: 513 nM
SMILES: CC(C)(C)OC(=O)N1CCC[C@H]1C(=O)N1CCC(C(=O)N[C@H](C(=O)O)C2CCCC2)(c2ccc(Br)cc2)CC1 [BIO124]
